Where two headings read alike, the source gives them in different places.
Legend:
KCNQ2 = KCNQ2 (Homo sapiens, UniProt O43526); assay: TEVC of homomeric KCNQ2 expressed in Xenopus oocytes; type: cell-based
Excerpt: (§1) cRNA transcripts encoding human KCNA1, KCNQ1, KCNQ2, KCNQ3, KCNQ4, or KCNQ5 were generated by in vitro transcription using the T7 polymerase message machine kit (Thermo Fisher Scientific), after vector linearization, from cDNA sub-cloned into plasmids incorporating X. laevis β-globin 5′ and 3′ UTRs flanking the coding region to enhance translation and cRNA stability. cRNA was quantified by spectrophotometry. Mutant cDNAs were generated by site-directed mutagenesis using a QuikChange kit according to manufacturer's protocol (Stratagene, San Diego, Calif.) and corresponding cRNAs prepared as above. Defolliculated stage V and VI X. laevis oocytes (Ecocyte Bioscience, Austin, Tex.) were injected with Kv channel a subunit cRNAs (10 ng total per oocyte). Oocytes were incubated at 16° C. in Barth's saline solution (Ecocyte) containing penicillin and streptomycin, with daily washing, for 3-5 days prior to two-electrode voltage-clamp (TEVC) recording.
TEVC recording was performed at room temperature with an OC-725C amplifier (Warner Instruments, Hamden, Conn.) and pClamp10.2 software (Molecular Devices, Sunnyvale, Calif.) 3-5 days after cRNA injection as described in the section above. Oocytes were placed in a small-volume oocyte bath (Warner) and viewed with a dissection microscope. Chemicals were sourced from Sigma. Bath solution was (in mM): 96 NaCl, 4 KCl, 1 MgCl2, 1 CaCl2. 10 HEPES (pH 7.6). […] MTX (DMSO), sorbic acid (ethanol), and glutaconic acid (molecular grade H2O) were stored at −20° C. as 1 M stocks. Oleamide was stored as a 1 mM stock in ethanol at 4° C. Palmitic acid was conjugated with bovine serum albumin as a 1 mM stock and stored at −20° C. All compounds were diluted to working concentrations each experimental day. All compounds were introduced to the recording bath via gravity perfusion at a constant flow of 1 ml/min for 3 min prior to recording. Pipettes were of 1-2 MΩ resistance when filled with 3 M KCl. Currents were recorded in response to pulses between −80 and +40 mV at 20 mV intervals, or a single pulse to +40 mV, from a holding potential of −80 mV, to yield current-voltage relationships, current magnitude, and for quantifying activation rate. TEVC data analysis was performed with Clampfit10.2 (Molecular Devices) and Graphpad Prism software (GraphPad, San Diego, Calif., USA); values are stated as mean±SEM. Normalized tail currents were plotted versus prepulse voltage and fitted with a single Boltzmann function:
cRNA transcripts encoding human KCNQ2, KCNQ3, KCNQ4, KCNQ5 (Kv7.2-Kv7.5) were generated by in vitro transcription using the T7 polymerase mMessage mMachine kit (Thermo Fisher Scientific), after vector linearization, from cDNA sub-cloned into plasmids incorporating Xenopus laevis β-globin 5′ and 3′ UTRs flanking the coding region to enhance translation and cRNA stability. cRNA was quantified by spectrophotometry. Mutant KCNQ2 and KCNQ3 cDNAs were generated with site-directed mutagenesis using a QuikChange kit according to the manufacturer's protocol (Stratagene, San Diego, Calif.) and corresponding cRNAs prepared as above. Defolliculated stage V and VI Xenopus laevis oocytes (Ecocyte Bioscience, Austin, Tex.) were injected with KCNQ channel α subunit cRNAs (5-10 ng). The oocytes were incubated at 16° C. in Barth's saline solution (Ecocyte) containing penicillin and streptomycin, with daily washing, for 2-5 days prior to two-electrode voltage-clamp (TEVC) recording.
TEVC recording was performed at room temperature using a OC-725C amplifier (Warner Instruments, Hamden, Conn.) and pClamp8 software (Molecular Devices, Sunnyvale, Calif.) 2-5 days after cRNA injection as described in the section above. The oocytes were placed in a small-volume oocyte bath (Warner) and viewed with a dissection microscope. Unless otherwise stated, chemicals were sourced from Sigma. Bath solution was (in mM): 96 NaCl, 4 KCl, 1 MgCl2, 1 CaCl2, 10 HEPES (pH 7.6).

[1] = system: pentylene tetrazole-induced seizures; assay: PTZ chemoconvulsant assay; type: in vivo, mouse; details: for clonic seizure incidence: alone
Excerpt: We compared anticonvulsant activities of test compounds in male C57BL/6 mice (Charles River) aged 2-3 months. Mice were housed and used according to the recommendations in the Guide for the Care and Use of Laboratory Animals of the National Institutes of Health (NIH Publication, 8th edition, 2011). The study protocol was approved by the Institutional Animal Care and Use Committee of University of California, Irvine, which confirmed that all relevant ethical regulations were adhered to. Chemicals were sourced from Sigma (St. Louis, Mo., USA). A pentylene tetrazole (PTZ) chemoconvulsant assay was used-. […] Following the PTZ injection, mice were caged individually and an observer (GWA) blinded to the drug used recorded, over 20 min, clonic and tonic seizure incidence, and seizure-related mortality.
We quantified the anticonvulsant activities of (E)-2-dodecenal and tridecanal in male C57BL/6 mice (Charles River, Wilmington, Mass.) aged 2-3 months. The mice were housed and used according to the recommendations in the Guide for the Care and Use of Laboratory Animals of the National Institutes of Health (NIH Publication, 8th edition, 2011). The study protocol was approved by the Institutional Animal Care and Use Committee of University of California, Irvine. The chemicals were sourced from Sigma (St. Louis, Mo., USA). We used a pentylene tetrazole (PTZ) chemoconvulsant assay as we previously described (30). We injected the mice intraperitoneally with (E)-2-dodecenal (2 or 20 mgkg^−1) (with or without 2.5 mgkg^−1 XE991) or tridecanal (20 mgkg^−1) solubilized in PBS, or vehicle control (PBS), and then 30 minutes later we injected mice intraperitoneally with 80 mgkg-PTZ. Following the PTZ injection, the mice were caged individually and an observer (GWA) blinded to the experimental condition timed the latency to first seizure.
We compared anticonvulsant activities of 3FMSG in male C57BL/6 mice (Charles River) aged 2-3 months. Mice were housed and used according to the recommendations in the Guide for the Care and Use of Laboratory Animals of the National Institutes of Health (NIH Publication, 8th edition, 2011). The study protocol was approved by the Institutional Animal Care and Use Committee of University of California, Irvine, which confirmed that all relevant ethical regulations were adhered to. Chemicals were sourced from Sigma (St. Louis, Mo., USA). We used a pentylene tetrazole (PTZ) chemoconvulsant assay as we previously described^27. Mice were injected intraperitoneally with 3FMSG (5 mg kg^−1) or vehicle control (PBS) and then 30 minutes later injected intraperitoneally with 80 mg kg^−1 PTZ. Following the PTZ injection, mice were caged individually and an observer (GWA) blinded to the drug used recorded seizure activity over 20 minutes.

KCNQ1 = KCNQ1 (Homo sapiens, UniProt P51787); assay: TEVC of homomeric KCNQ1 expressed in Xenopus oocytes; type: cell-based
Protocol: Oocytes were placed in a small-volume oocyte bath (Warner) and viewed with a dissection microscope. Chemicals were sourced from Sigma. Bath solution was (in mM): 96 NaCl, 4 KCl, 1 MgCl2, 1 CaCl2. 10 HEPES (pH 7.6). […] MTX (DMSO), sorbic acid (ethanol), and glutaconic acid (molecular grade H2O) were stored at −20° C. as 1 M stocks. Oleamide was stored as a 1 mM stock in ethanol at 4° C. Palmitic acid was conjugated with bovine serum albumin as a 1 mM stock and stored at −20° C. All compounds were diluted to working concentrations each experimental day. All compounds were introduced to the recording bath via gravity perfusion at a constant flow of 1 ml/min for 3 min prior to recording. Pipettes were of 1-2 MΩ resistance when filled with 3 M KCl. Currents were recorded in response to pulses between −80 and +40 mV at 20 mV intervals, or a single pulse to +40 mV, from a holding potential of −80 mV, to yield current-voltage relationships, current magnitude, and for quantifying activation rate. […]

KCNQ2-W236L/KCNQ3-W265L = KCNQ2-W236L/KCNQ3-W265L (Homo sapiens, UniProt O43525+O43526, W236L/W265L); assay: TEVC of double-mutant WL/WL KCNQ2/3 channels; type: cell-based
Excerpt: as §1
TEVC recording was performed at room temperature with an OC-725C amplifier (Warner Instruments, Hamden, Conn.) and pClamp10.2 software (Molecular Devices, Sunnyvale, Calif.) 3-5 days after cRNA injection as described in the section above. Oocytes were placed in a small-volume oocyte bath (Warner) and viewed with a dissection microscope. Chemicals were sourced from Sigma. Bath solution was (in mM): 96 NaCl, 4 KCl, 1 MgCl2, 1 CaCl2. 10 HEPES (pH 7.6). […] Currents were recorded in response to pulses between −80 and +40 mV at 20 mV intervals, or a single pulse to +40 mV, from a holding potential of −80 mV, to yield current-voltage relationships, current magnitude, and for quantifying activation rate. […]
cRNA transcripts encoding human KCNQ2, KCNQ3, KCNQ4, KCNQ5 (Kv7.2-Kv7.5) were generated by in vitro transcription using the T7 polymerase mMessage mMachine kit (Thermo Fisher Scientific), after vector linearization, from cDNA sub-cloned into plasmids incorporating Xenopus laevis β-globin 5′ and 3′ UTRs flanking the coding region to enhance translation and cRNA stability. cRNA was quantified by spectrophotometry. […]

With `NCC(=O)O` [glycine, reference compound] the “effect on KCNQ2 (in words)” value (KCNQ2) was “unable to open”.
With `CCCCCCCCC/C=C/C=O` [(E)-2-dodecenal] the “latency to first PTZ-induced seizure” value ([1]; 2 mgkg−1 i.p.) was “threefold”, the “latency to first PTZ-induced seizure” value ([1]; 20 mgkg−1 i.p.) was “> threefold” and the “effect on KCNQ1 (in words)” value (KCNQ1) was “sensitive”. It also gave an EC50 (KCNQ2; read-out: EC50 of KCNQ2 activation by (E)-2-dodecenal) of 0.06 ± 0.01 µM.
With `CS(=O)(=O)N(CC(=O)O)c1cccc(F)c1` [3FMSG] the “incidence of PTZ-induced tonic seizures” value ([1]; 5 mg/kg i.p.) was “reduced by threefold”, the “effect on KCNQ1 (in words)” value (KCNQ1) was “negligible effects” and the “effect of tenfold excess (100 μM) on KCNQ2 activation by 2FPG (10 μM)” value (KCNQ2) was “subtly reduced the efficacy”. The “effect on KCNQ2 (in words)” value (KCNQ2) was “negligible effects”.
`NCC1(CC(=O)O)CCCCC1` [gabapentin, reference compound] was tested, and the “augmentation of WL/WL KCNQ2/3 current” value (KCNQ2-W236L/KCNQ3-W265L) was no more than 50% and the “effect on KCNQ2 (in words)” value (KCNQ2) was “insensitive”.
In the case of `CC(=O)c1c(O)c(C)c(O)c(Cc2c(O)c3c(c(C(=O)/C=C/c4ccccc4)c2O)OC(C)(C)C=C3)c1O` [MTX, mallotoxin], the clonic seizure incidence ([1]; 10 mg/kg i.p.) is reported as “neither compound reduced clonic seizures alone”, the clonic seizure incidence ([1]; 20 mg/kg i.p.) is reported as “halved” and the “suppression of PTZ-induced tonic seizures” value ([1]; individually) is reported as “ineffective”. For the same compound, the “reduction of MTX potency (negative shift in voltage dependence) by W/L mutation” value (KCNQ2-W236L/KCNQ3-W265L; KCNQ2-W236L or KCNQ3-W265L, or both) was “tenfold”, the “shift of midpoint voltage of KCNQ2 activation” value (KCNQ2; MTX 30 μM) was −24 mV and the EC50 (KCNQ2; −60 mV, read-out: EC50 of KCNQ2 activation) was 6.4 µM.
